These results are taken from US20240182431A1, “NEW CONTRAST AGENT FOR USE IN MAGNETIC RESONANCE IMAGING” (Bayer Aktiengesellschaft, priority 2021, published 2024).

This series can be described thus: Partition coefficient (logP butanol/buffer). It counts as physicochemical.
Where [1] appears, read: 1-butanol / 50 mM Tris-HCl, pH 7.4, room temperature.

Regarding `CCOCCOCCOc1ccc(CCC[C@@H](C(=O)O)N2CCN(C(CO)C(=O)[O-])CCN(C(CO)C(=O)[O-])CCN(C(CO)C(=O)[O-])CC2)cc1.[Gd+3]` (mixture of isomers) [Example 21, gadolinium-2,2′,2″-{10-[(1S)-1-carboxy-4-{4-[2-(2-ethoxyethoxy)ethoxy]phenyl}butyl]-1,4,7,10-tetraazacyclododecane-1,4,7-triyl}tris(3-hydroxypropanoate)], under setting [1], the “Log P (butanol/buffer)” value is −1.03.

Take `O=C([O-])CN1CCN(C(Cc2ccc(OCC(F)(F)C(F)F)cc2)C(=O)O)CCN(CC(=O)[O-])CCN([C@@H](CO)C(=O)[O-])CC1.[Gd+3]` (mixture of isomers) [Example 33, gadolinium (2S)-2-[4,10-bis(carboxylatomethyl)-7-{1-carboxy-2-[4-(2,2,3,3-tetrafluoropropoxy)phenyl]ethyl}-1,4,7,10-tetraazacyclododecan-1-yl]-3-hydroxypropanoate]: the “Log P (butanol/buffer)” value under setting [1] is given as −0.55.

Consider `CCOCCOCCOc1ccc(CCC[C@@H](C(=O)O)N2CCN(C(CCO)C(=O)[O-])CCN(C(CCO)C(=O)[O-])CCN(C(CCO)C(=O)[O-])CC2)cc1.[Gd+3]` (mixture of isomers) [Example 36, gadolinium-2,2′-{4-[(1S)-1-carboxy-4-{4-[2-(2-ethoxyethoxy)ethoxy]phenyl}butyl]-10-[1-carboxylato-3-hydroxypropyl]-1,4,7,10-tetraazacyclododecane-1,7-diyl}bis(4-hydroxybutanoate)], for which the “Log P (butanol/buffer)” value (pH 7.4) was −1.08.

On to `CCOCCOCCOc1ccc(CC(C(=O)O)N2CCN(CC(=O)[O-])CCN(C(C)C(=O)[O-])CCN(CC(=O)[O-])CC2)cc1.[Gd+3]` (single isomer, unassigned) [Example 5, gadolinium 2-[7-(1-carboxy-2-{4-[2-(2-ethoxyethoxy)ethoxy]phenyl}ethyl)-4,10-bis(carboxylatomethyl)-1,4,7,10-tetraazacyclododecan-1-yl]propanoate], for which the “Log P (butanol/buffer)” value under setting [1] was −1.52.

`CCOCCOCCOc1ccc(CC(C(=O)O)N2CCN(CC(=O)[O-])CCN(C(C)C(=O)[O-])CCN(CC(=O)[O-])CC2)cc1.[Gd+3]` (single isomer, unassigned) [Example 6, gadolinium 2-[7-(1-carboxy-2-{4-[2-(2-ethoxyethoxy)ethoxy]phenyl}ethyl)-4,10-bis(carboxylatomethyl)-1,4,7,10-tetraazacyclododecan-1-yl]propanoate]: under setting [1], the “Log P (butanol/buffer)” value was −1.44.

In the case of `CCOCCOc1ccc(CC(C(=O)O)N2CCN(CC(=O)[O-])CCN(C(CC)C(=O)[O-])CCN(CC(=O)[O-])CC2)cc1.[Gd+3]` (single isomer, unassigned) [Example 7, gadolinium 2-[7-{1-carboxy-2-[4-(2-ethoxyethoxy)phenyl]ethyl}-4,10-bis(carboxylatomethyl)-1,4,7,10-tetraazacyclododecan-1-yl]butanoate], the “Log P (butanol/buffer)” value under setting [1] is −1.09.

Consider `CCOCCOc1ccc(CC(C(=O)O)N2CCN(CC(=O)[O-])CCN(C(CC)C(=O)[O-])CCN(CC(=O)[O-])CC2)cc1.[Gd+3]` (single isomer, unassigned) [Example 8, gadolinium 2-[7-{1-carboxy-2-[4-(2-ethoxyethoxy)phenyl]ethyl}-4,10-bis(carboxylatomethyl)-1,4,7,10-tetraazacyclododecan-1-yl]butanoate], for which the “Log P (butanol/buffer)” value under setting [1] was −1.04.

With `CCOCCOCCOc1ccc(CC(C(=O)O)N2CCN(CC(=O)[O-])CCN(CC(=O)[O-])CCN(CC(=O)[O-])CC2)cc1.[Gd+3]` (centres unmarked) [Example 2, gadolinium 2,2′,2″-{10-[1-carboxy-2-{4-[2-(2-ethoxyethoxy)ethoxy]phenyl}ethyl]-1,4,7,10-tetraazacyclododecane-1,4,7-triyl}triacetate], under setting [1], the “Log P (butanol/buffer)” value is given as −1.63.

For the compound `CCOCCOCCOc1ccc(C[C@@H](C(=O)O)N2CCN(CC(=O)[O-])CCN(CC(=O)[O-])CCN(CC(=O)[O-])CC2)cc1.[Gd+3]` [Example 3, gadolinium 2,2′,2″-{10-[(1S)-1-carboxy-2-{4-[2-(2-ethoxyethoxy)ethoxy]phenyl}ethyl]-1,4,7,10-tetraazacyclododecane-1,4,7-triyl}triacetate], the “Log P (butanol/buffer)” value under setting [1] was −1.61.

Take `CCOCCOCCOc1ccc(C[C@H](C(=O)O)N2CCN(CC(=O)[O-])CCN(CC(=O)[O-])CCN(CC(=O)[O-])CC2)cc1.[Gd+3]` [Example 4, gadolinium 2,2′,2″-{10-[(1R)-1-carboxy-2-{4-[2-(2-ethoxyethoxy)ethoxy]phenyl}ethyl]-1,4,7,10-tetraazacyclododecane-1,4,7-triyl}triacetate]: under setting [1], the “Log P (butanol/buffer)” value is −1.61.

Take `CCCCOc1ccc(CCCC[C@@H](C(=O)O)N2CCN([C@@H](CO)C(=O)[O-])CCN([C@@H](CO)C(=O)[O-])CCN([C@@H](CO)C(=O)[O-])CC2)cc1.[Gd+3]` [Example 9, gadolinium (2S,2′S,2″S)-2,2′,2″-{10-[(1S)-5-(4-butoxyphenyl)-1-carboxypentyl]-1,4,7,10-tetraazacyclododecane-1,4,7-triyl}tris(3-hydroxypropanoate)]: the “Log P (butanol/buffer)” value under setting [1] is listed as 0.26.

On to `CCOCCOCCOCCOc1ccc(CC(C(=O)O)N2CCN(CC(=O)[O-])CCN(CC(=O)[O-])CCN(CC(=O)[O-])CC2)cc1.[Gd+3]` (centres unmarked) [Example 10, gadolinium 2,2′,2″-{10-[1-carboxy-2-(4-{2-[2-(2-ethoxyethoxy)ethoxy]ethoxy}phenyl)ethyl]-1,4,7,10-tetraazacyclododecane-1,4,7-triyl}triacetate], for which the “Log P (butanol/buffer)” value under setting [1] is −1.70.

Consider `CCOCCOCCOCCOc1ccc(C[C@@H](C(=O)O)N2CCN(CC(=O)[O-])CCN(CC(=O)[O-])CCN(CC(=O)[O-])CC2)cc1.[Gd+3]` [Example 11, gadolinium 2,2′,2″-{10-[(1S)-1-carboxy-2-(4-{2-[2-(2-ethoxyethoxy)ethoxy]ethoxy}phenyl)ethyl]-1,4,7,10-tetraazacyclododecane-1,4,7-triyl}triacetate], for which the “Log P (butanol/buffer)” value under setting [1] is given as −1.68.

`CCOCCOCCOCCOc1ccc(C[C@H](C(=O)O)N2CCN(CC(=O)[O-])CCN(CC(=O)[O-])CCN(CC(=O)[O-])CC2)cc1.[Gd+3]` [Example 12, gadolinium 2,2′,2″-{10-[(1R)-1-carboxy-2-(4-{2-[2-(2-ethoxyethoxy)ethoxy]ethoxy}phenyl)ethyl]-1,4,7,10-tetraazacyclododecane-1,4,7-triyl}triacetate]: the “Log P (butanol/buffer)” value under setting [1] is recorded as −1.68.

On to `CCOCCOCCOCCOc1ccc(CC(C(=O)O)N2CCN(CC(=O)[O-])CCN(C(COC)C(=O)[O-])CCN(CC(=O)[O-])CC2)cc1.[Gd+3]` (centres unmarked) [Example 13, gadolinium 2-{7-[1-carboxy-2-(4-{2-[2-(2-ethoxyethoxy)ethoxy]ethoxy}phenyl)ethyl]-4,10-bis(carboxylatomethyl)-1,4,7,10-tetraazacyclododecan-1-yl}-3-methoxypropanoate], for which, under setting [1], the “Log P (butanol/buffer)” value is recorded as −1.53.

For `CCCCOc1ccc(CC(C(=O)O)N2CCN(CC(=O)[O-])CCN(CC(=O)[O-])CCN(CC(=O)[O-])CC2)cc1.[Gd+3]` (centres unmarked) [Example 14, gadolinium 2,2′,2″-{10-[2-(4-butoxyphenyl)-1-carboxyethyl]-1,4,7,10-tetraazacyclododecane-1,4,7-triyl}triacetate], under setting [1], the “Log P (butanol/buffer)” value is −0.38.

Regarding `CCOCCOCCOc1ccc(CC(C(=O)O)N2CCN(CC(=O)[O-])CCN(CC(=O)[O-])CCN(CC(=O)[O-])CC2)cn1.[Gd+3]` (centres unmarked) [Example 16, gadolinium 2,2′,2″-{10-[1-carboxy-2-{6-[2-(2-ethoxyethoxy)ethoxy]pyridin-3-yl}ethyl]-1,4,7,10-tetraazacyclododecane-1,4,7-triyl}triacetate], the “Log P (butanol/buffer)” value under setting [1] was −1.81.

In the case of `CCOCCOCCOc1ccc(CCC[C@H](C(=O)O)N2CCN([C@@H](CO)C(=O)[O-])CCN([C@@H](CO)C(=O)[O-])CCN([C@@H](CO)C(=O)[O-])CC2)cc1.[Gd+3]` [Example 18, gadolinium (2S,2′S,2″S)-2,2′,2″-{10-[(1R)-1-carboxy-4-{4-[2-(2-ethoxyethoxy)ethoxy]phenyl}butyl]-1,4,7,10-tetraazacyclododecane-1,4,7-triyl}tris(3-hydroxypropanoate)], the “Log P (butanol/buffer)” value under setting [1] is given as −1.11.

As to `CCOCCOCCOc1ccc(CCC[C@H](C(=O)O)N2CCN([C@H](CO)C(=O)[O-])CCN([C@H](CO)C(=O)[O-])CCN([C@H](CO)C(=O)[O-])CC2)cc1.[Gd+3]` [Example 19, gadolinium (2R,2R,2″R)-2,2′,2″-{10-[(1R)-1-carboxy-4-{4-[2-(2-ethoxyethoxy)ethoxy]phenyl}butyl]-1,4,7,10-tetraazacyclododecane-1,4,7-triyl}tris(3-hydroxypropanoate)], the “Log P (butanol/buffer)” value under setting [1] is listed as −0.95.

With `CCOCCOCCOc1ccc(CCC[C@@H](C(=O)O)N2CCN([C@H](CO)C(=O)[O-])CCN([C@H](CO)C(=O)[O-])CCN([C@H](CO)C(=O)[O-])CC2)cc1.[Gd+3]` [Example 20, gadolinium (2R,2′R,2″R)-2,2′,2″-{10-[(1S)-1-carboxy-4-{4-[2-(2-ethoxyethoxy)ethoxy]phenyl}butyl]-1,4,7,10-tetraazacyclododecane-1,4,7-triyl}tris(3-hydroxypropanoate)], under setting [1], the “Log P (butanol/buffer)” value is on record as −1.11.

Consider `CCOCCOCCOc1ccc(CC(C(=O)O)N2CCN(CC(=O)[O-])CCN(CC(=O)[O-])CCN(CC(=O)[O-])CC2)nc1.[Gd+3]` (centres unmarked) [Example 23, gadolinium 2,2′,2″-{10-[1-carboxy-2-{5-[2-(2-ethoxyethoxy)ethoxy]pyridin-2-yl}ethyl]-1,4,7,10-tetraazacyclododecane-1,4,7-triyl}triacetate], for which the “Log P (butanol/buffer)” value under setting [1] was −1.94.

For `CCCOc1ccc(CCC(C(=O)O)N2CCN(CC(=O)[O-])CCN(CC(=O)[O-])CCN(CC(=O)[O-])CC2)cc1.[Gd+3]` (centres unmarked) [Example 24, gadolinium 2,2′,2″-{10-[1-carboxy-3-(4-propoxyphenyl)propyl]-1,4,7,10-tetraazacyclododecane-1,4,7-triyl}triacetate], under setting [1], the “Log P (butanol/buffer)” value is on record as −0.71.

As for `CCOCCOCCOc1ccc(CCC[C@@H](C(=O)O)N2CCN(CC(=O)[O-])CCN(CC(=O)[O-])CCN(CC(=O)[O-])CC2)cc1.[Gd+3]` [Example 26, gadolinium 2,2′,2″-{10-[(1S)-1-carboxy-4-{4-[2-(2-ethoxyethoxy)ethoxy]phenyl}butyl]-1,4,7,10-tetraazacyclododecane-1,4,7-triyl}triacetate], the “Log P (butanol/buffer)” value under setting [1] is given as −1.01.
